From patent EP0211584A1, “Antihypertensive agents” (AMERICAN HOME PRODUCTS CORPORATION, priority 1985, dated 1987) come the findings set out here.

Test [1] deals with Ca^+2-calmodulin dependent myosin light chain phosphorylation (Bos taurus, UniProt Q28824). The experiment in a line: Inhibition of myosin light chain phosphorylation (MLCP), Silver et al. Particulars: read-out: Antag. of MLCP (percent inhibition of myosin light chain phosphorylation). The class given is biochemical. Here is the method: The data reported herein was obtained at a six minute time-point rather than the 1.5, 5 and 12 minute time points indicated in the superprecipita- tion assay of the Silver et al paper.
(§1) The following examples illustrate the preparation of a representative number of compounds of this invention. After each example, the Ca+2 antagonist activity of the compound is presented in terms of percent relaxation of aortic tissue (P.R.) at 10-^5M concentration. […] Inhibition of super- precipitation (Antag. of Actin-Myosin interaction) is expressed as percent inhibition (mean ± standard error of the mean for at least 3 separate experiments) at a compound concentration. In the same manner, inhibition of myosin light chain phosphorylation (Antag. of MLCP) is expressed as a percent inhibition at a compound concentration. Similarly, the antihypertensive activity is reported in terms of millimetres mercury (mmHg) systolic blood pressure (B.P.) reduction at the stated time post 50 mg/kg oral dosing or other dosing as indicated.

Test [2] has as its system spontaneously hypertensive rats. The experiment in a line: Hypotensive effect: systolic blood pressure of spontaneously hypertensive rats. The class given is in vivo. Particulars: mmHg per method. As to the method: The hypotensive in vivo effect of the compounds of this invention was determined by measuring changes in the systolic blood pressure of spontaneously hypertensive rats with a Decker Caudal Plethysmograph. The compound being tested was administered to a group of 4 rats and their systolic pressure was determined prior to and at 1.5 and 4 hours after compound administration. Initial testing was done by oral administration of the compound. Results (mmHg) are expressed as decreases in systolic blood pressure.
as §1

Test [3] relates to arterial actin-myosin interactions. Put plainly: Inhibition of superprecipitation (antagonism of actin-myosin interaction), Silver et al. Particulars: six minute time-point. Type of test: biochemical. Here is the method: . The data reported herein was obtained at a six minute time-point rather than the 1.5, 5 and 12 minute time points indicated in the superprecipita- tion assay of the Silver et al paper.
as §1

For test [4], the system named is isolated paced intact rabbit atria. The experiment in a line: Cardiac depressant (negative inotropic) effect in isolated paced rabbit atria. Particulars: Oryctolagus cuniculus; rabbit atria paced at 3Hz, 30°C, cumulative dosing; read-out: IC25 (concentration which produces 25% inhibition of isometric force). Here is the method: The potential for detrimental cardiac depressant (negative inotropic) effects of the compounds of this invention was assessed in isolated paced intact rabbit atria. […] Muscles (N=5-9/compound) were stimulated at a frequency of 3Hz with a WPI stimulator for a 60 minute equilibration period. Changes in isometric force were recorded as described for the aortic smooth muscle experiments, supra. […]

For test [5], the system named is rabbit aortic smooth muscle. Put plainly: Ca+2 antagonism: relaxation of KCl-depolarized rabbit aortic smooth muscle strips. The settings on record: Oryctolagus cuniculus, 20 min, compound 1 x 10^-5M; 100mM KCl contraction; 20 minutes after addition; mean of two experiments; read-out: P.R. (percent relaxation of aortic tissue). As to the method:
The composition of PSS was as follows (mM): NaCl 112,KCI 5, NaHCO3 25 KH2PO4 1, MgSO4 1.2, CaCl2 2.5, dextrose 10. The lower end of each tissue strip was attached to a fixed post and the upper end to a Statham UC-4 transducer. Changes in force development were recorded on a Beckman Dynograph Polygraphic Recorder.
Following equilibration, the muscles were contracted in a depolarizing solution of PSS in which 100mM KCI was substituted for an equimolar concentration of NaCI. Following attainment of steady- state isometric force (20 min.), the test compound was added to afford a final concentration of 1 x 10^-5M. The inhibitory effect, expressed as percent relaxation, was determined from the mean of two experiments twenty minutes after the addition of the compound being tested.
as §1

Setting [6] is: dose 25mg/kg oral, at 1.5 hours.
Where [7] appears, read: dose 50mg/kg oral, at 1.5 hours.

Turning to `CC1=C(C(=O)OCCOc2ccccc2)C(c2c(F)c(F)c(F)c(F)c2F)C2=C(CNCC2=O)N1` (single isomer, unassigned; (-)) [Example 3, (-)-1,4,5,6,7,8-Hexahydro-2-methyl-5-oxo-4-(pentafluorophenyl)-1,7-naphthridine-3-carboxylic acid 2-phenoxyethyl ester], the inhibition at 50 µM in test [1] was determined as 57%. For the same molecule, the inhibition at 100 µM in test [1] came out at 70%. Moreover, the “B.P. (systolic blood pressure reduction)” value in test [2] (setting [6]) is on record as -6 mm; in test [2] (dose 25mg/kg oral, at 4 hours) it was -14 mm. The “Antag. of Actin-Myosin (percent inhibition of superprecipitation)” value in test [3] (50µM) worked out at 65%; in test [3] (100µM), 76%. Moreover, the IC25 in test [4] was more than 10 µM. In addition, in test [5], the inhibition at 10 µM came out at 56%.

Turning to `CC1=C(C(=O)OCCOc2ccccc2)C(c2cccc(Cl)c2Cl)C2=C(CNCC2=O)N1` (centres unmarked) [Example 19, 4-(2,3-Dichlorophenyl)-1,4,5,6,7,8-hexahydro-2-methyl-5-oxo-1,7-naphthyridine-3-carboxylic acid 2-phenoxyethylester], the inhibition at 100 µM in test [1] was 69%. Further, the “B.P. (systolic blood pressure reduction)” value is reported as -50 mm in test [2] (setting [7]) and -73 mm in test [2] (dose 50mg/kg oral, at 4 hours). Further, in test [3] (100µM), the “Antag. of Actin-Myosin (percent inhibition of superprecipitation)” value worked out at 71%. Besides, the IC25 in test [4] was determined as 2.5 µM. Besides, the inhibition at 10 µM in test [5] is 62%.

Take `CC1=C(C(=O)OCCCCOc2ccccc2)C(c2c(F)c(F)c(F)c(F)c2F)C2=C(CNCC2=O)N1` (centres unmarked) [Example 21, 1,4,5,6,7,8-Hexahydro-2-methyl-5-oxo-4-(pentafluorophenyl)-1,7-naphthyridine-3-carboxylic acid 4-phenoxvbutvl ester]: the inhibition at 100 µM in test [1] is 77%. For the same molecule, in test [2] (dose 25mg/kg oral, at 4 hours), the “B.P. (systolic blood pressure reduction)” value is given as -49 mm. For the same molecule, in test [3] (100µM), the “Antag. of Actin-Myosin (percent inhibition of superprecipitation)” value is listed as 80%. Moreover, the IC25 in test [4] worked out at 1 µM. In test [5], the inhibition at 10 µM was found to be 61%.

Consider `COC(COC(=O)C1=C(C)NC2=C(C(=O)CNC2)C1c1cccc(Cl)c1Cl)c1ccccc1` (centres unmarked) [Example 1, 4-(2,3-Dichloroohenyl)-1,4,5,6,7,8-hexahydro-2-methyl-5-oxo-1,7-naphthyridine-3-carboxylic acid 2-methoxy-2-phenylethyl ester], for which the inhibition at 25 µM in test [1] came to 38 ± 3%. Further, in test [1], the inhibition at 50 µM worked out at 66%. Also, in test [1], the inhibition at 100 µM was found to be 76 ± 2%. Moreover, the “B.P. (systolic blood pressure reduction)” value in test [2] (setting [7]) is reported as -53 mm; in test [2] (dose 50mg/kg oral, at 4 hours), -30 mm. In addition, the “Antag. of Actin-Myosin (percent inhibition of superprecipitation)” value in test [3] (25µM) came out at 43± 2%; in test [3] (50µM), 75±3%; in test [3] (100µM) it was 83± 3%. Moreover, the IC25 in test [4] was found to be 10 µM. The inhibition at 10 µM in test [5] is 32%.

For `COC(COC(=O)C1=C(C)NC2=C(C(=O)CNC2)C1c1cccc(Cl)c1C)c1ccccc1` (centres unmarked) [Example 10, 4-(3-chloro-2-methylphenyl)-1,4,5,6,7,8-hexahydro-2-methyl-5-oxo-1,7-naphthyridine-3-carboxylic acid 2-methoxy-2-phenylethyl ester], the inhibition at 25 µM in test [1] is 35 ± 5%. The inhibition at 50 µM in test [1] came to 62 ± 1%. For the same molecule, the inhibition at 100 µM in test [1] was determined as 75 ± 3%. Also, the “B.P. (systolic blood pressure reduction)” value is given as -28 mm in test [2] (dose 10mg/kg oral, at 1.5 hours) and -19 mm in test [2] (dose 10mg/kg oral, at 4 hours). Besides, the “Antag. of Actin-Myosin (percent inhibition of superprecipitation)” value is 45±3% in test [3] (25µM), 68±2% in test [3] (50µM) and 76±2% in test [3] (100µM). Further, the IC25 in test [4] was more than 10 µM. Moreover, the inhibition at 10 µM in test [5] was found to be 60%.

`CC1=C(C(=O)OC(C)COc2ccccc2)C(c2c(F)c(F)c(F)c(F)c2F)C2=C(CNCC2=O)N1` (centres unmarked) [Example 13, 1,4,5,6,7,8-Hexahydro-2-methyl-5-oxo-4-(pentafluorophenyl)-1,7-naphthylidine-3-carboxylic acid 1-methvl-2-ahenoxvethvl ester]: the inhibition at 25 µM in test [1] was found to be 58%. In test [1], the inhibition at 100 µM stood at 70%. For the same molecule, the “B.P. (systolic blood pressure reduction)” value is -35 mm in test [2] (setting [7]) and -60 mm in test [2] (dose 50mg/kg oral, at 4 hours). Besides, the “Antag. of Actin-Myosin (percent inhibition of superprecipitation)” value came out at 61% in test [3] (25µM) and 78% in test [3] (100µM). Also, the IC25 in test [4] is 10 µM. For the same molecule, in test [5], the inhibition at 10 µM was determined as 46%.

As to `COC(COC(=O)C1=C(C)NC2=C(C(=O)CNC2)C1c1ccccc1C(F)(F)F)c1ccccc1` (centres unmarked) [Example 12, 1,4,5,6,7,8-Hexahydro-2-methyl-5-oxo-4-[2-(trifluoromethyl)phenyl]-1,7-naphthyridine-3-carboxylic acid 2-methoxv-2-ohenvlethvl ester], the inhibition at 100 µM in test [1] came out at 24%. Moreover, the “B.P. (systolic blood pressure reduction)” value in test [2] (setting [6]) is on record as -56 mm; in test [2] (dose 25mg/kg oral, at 4 hours) it was -56 mm. Also, in test [3] (100µM), the “Antag. of Actin-Myosin (percent inhibition of superprecipitation)” value stood at 30%. Besides, the IC25 in test [4] came out at 2 µM. Moreover, in test [5], the inhibition at 10 µM was found to be 39%.

On to `CC1=C(C(=O)OCC2COc3ccccc3O2)C(c2c(F)c(F)c(F)c(F)c2F)C2=C(CNCC2=O)N1` (centres unmarked) [Example 14, 1,4,5,6,7,8-Hexahydro-2-methyl-5-oxo-4-(pentafluorophenyl)-1,7-naphthyridine-3-carboxylic acid 2.3-dihvdro-1.4-benzodioxin-2-vimethvl ester], for which the inhibition at 25 µM in test [1] stood at 59%. Also, in test [1], the inhibition at 100 µM worked out at 76%. The “B.P. (systolic blood pressure reduction)” value is listed as -46 mm in test [2] (setting [7]) and -42 mm in test [2] (dose 50mg/kg oral, at 4 hours). Also, the “Antag. of Actin-Myosin (percent inhibition of superprecipitation)” value in test [3] (25µM) is listed as 65%; in test [3] (100µM), 80%. For the same molecule, the IC25 in test [4] was 3.2 µM. Also, in test [5], the inhibition at 10 µM came out at 62%.

As for `CC1=C(C(=O)OCCOc2ccccc2)C(c2ccccc2C)C2=C(CNCC2=O)N1` (centres unmarked) [Example 15, 1,4,5,6,7,8-Hexahydro-2-methyl-4-(2-methylphenyl)-5-oxo-1,7-naphthyridine-3-carboxylic arid 2-phenoxyethyl ester], the “B.P. (systolic blood pressure reduction)” value in test [2] (setting [6]) is recorded as -29 mm; in test [2] (dose 25mg/kg oral, at 4 hours), -39 mm. The “Antag. of Actin-Myosin (percent inhibition of superprecipitation)” value in test [3] (100µM) was determined as 66±5%. The IC25 in test [4] worked out at 4.7 µM. Besides, in test [5], the inhibition at 10 µM was 63%.

On to `COC(COC(=O)C1=C(C)NC2=C(C(=O)CNC2)C1c1c(F)c(F)c(F)c(F)c1F)c1ccccc1` (centres unmarked) [Example 5, 1,4,5,6,7,8-Hexahydro-2-methyl-5-oxo-4-(pentafluorophenyl)-1,7-naphthyridine-3-carboxylic acid 2-methoxy-2-phenylethyl ester], for which, in test [1], the inhibition at 25 µM came out at 21 ± 3%, the inhibition at 50 µM is 48 ± 2% and the inhibition at 100 µM was determined as 70 ± 3%. The “Antag. of Actin-Myosin (percent inhibition of superprecipitation)” value in test [3] (25µM) amounted to 20±5%. For the same molecule, the “Antag. of Actin-Myosin (percent inhibition of superprecipitation)” value in test [3] (50µM) is 50±5%. In addition, in test [3] (100µM), the “Antag. of Actin-Myosin (percent inhibition of superprecipitation)” value turned out to be 75±4%. In addition, the IC25 in test [4] is 10 µM. The inhibition at 10 µM in test [5] amounted to 71%.
